One data set deals with Carbonic anhydrase 9 (Homo sapiens, UniProt Q16790). As to the kind of experiment: Inhibition of human Carbonic anhydrase 9-mediated CO2 hydration by stopped-flow method.
The target of a further data set is Carbonic anhydrase 1 (Homo sapiens, UniProt P00915). As to the kind of experiment: Inhibition of human Carbonic anhydrase 1-mediated CO2 hydration by stopped-flow method.
For a further data set, the target named is Carbonic anhydrase 12 (Homo sapiens, UniProt O43570). The experiment in a line: Inhibition of human Carbonic anhydrase 12-mediated CO2 hydration by stopped-flow method.
The target in the next data set is Carbonic anhydrase 2 (Homo sapiens, UniProt P00918). The experiment in a line: Inhibition of human Carbonic anhydrase 2-mediated CO2 hydration by stopped-flow method.
Data set [1] addresses T1, 72 kDa type IV collagenase (Homo sapiens, UniProt P08253). As to the kind of experiment: Inhibition of MMP2.
Data set [2] deals with B16-F10. The experiment in a line: Antimetastatic activity against mouse B16F10 cells xenografted in C57BL mouse assessed as decrease in lung metastasis at 25 mg/kg, ip administered QD measured after 21 days. The format is functional. More on the design: scale not given: the % may be the effect or the level left. The following applies: route intraperitoneal.
In data set [3] the test system is HeLa. The experiment in a line: Cytotoxicity against human HeLa cells assessed as increase in LDH level at 50 uM after 24 hrs in hypoxic condition by spectrophotometric analysis relative to control. The format is functional.
Data set [4] relates to HeLa. The experiment in a line: Cytotoxicity against human HeLa cells assessed as increase in LDH level up to 100 uM after 24 hrs in normoxic condition by spectrophotometric analysis relative to control. Type of data set: cell-based.
The test system of data set [5] is HT-1080. As to the kind of experiment: Cytotoxicity against human HT1080 cells assessed as increase in LDH level up to 100 uM after 24 hrs in normoxic condition by spectrophotometric analysis relative to control. The format is cell-based. The following applies: ht-1080, 24 h.
For the next data set, the system named is Hydroxyapatite. As to the kind of experiment: Binding affinity to bone mineral hydroxyapatite at 100 uM after 17 hrs.
Data set [6] deals with B16-F10. As to the kind of experiment: Antimetastatic activity against mouse B16F10 cells xenografted in C57BL mouse assessed as decrease in lung metastasis at 12.5 mg/kg, ip administered QD measured after 21 days. Type of data set: functional. More on the design: scale not given: the % may be the effect or the level left. The following applies: route intraperitoneal.
For data set [7], the system named is HeLa. The experiment in a line: Cytotoxicity against human HeLa cells assessed as increase in LDH level after 24 hrs in hypoxic condition by spectrophotometric analysis relative to control. The format is functional, cell-based.
The subject of data set [8] is B16-F10. As to the kind of experiment: Antimetastatic activity against mouse B16F10 cells xenografted in C57BL mouse assessed as decrease in lung metastasis at 50 mg/kg, po administered QD measured after 21 days. Type of data set: functional. Also noted: scale not given: the % may be the effect or the level left.
Data set [9] concerns HT-1080. As to the kind of experiment: Cytotoxicity against human HT1080 cells assessed as increase in LDH level at 1 uM after 24 hrs in hypoxic condition by spectrophotometric analysis relative to control. Type of data set: functional.
The subject of data set [10] is HT-1080. As to the kind of experiment: Cytotoxicity against human HT1080 cells assessed as increase in LDH level after 24 hrs in hypoxic condition by spectrophotometric analysis relative to control. Type of data set: functional, cell-based.
Data set [11] has as its system B16-F10. The experiment in a line: Antimetastatic activity against mouse B16F10 cells xenografted in C57BL mouse assessed as decrease in lung metastasis at 50 mg/kg, ip administered QD measured after 21 days. Also noted: scale not given: the % may be the effect or the level left. The format is functional. The note with it: route intraperitoneal.
Data set [12] relates to HT-1080. The experiment in a line: Cytotoxicity against human HT1080 cells assessed as increase in LDH level at 50 uM after 24 hrs in hypoxic condition by spectrophotometric analysis relative to control. The format is functional.
The nature of data set [13]: Volume of distribution at steady state in Sprague-Dawley rat at 33 mg/kg, iv. Type of data set: ADME, organism-based. Also noted: dose 33 mg/kg, route intravenous. The note with it: in vivo, read-out: Vdss.
The target of data set [14] is T1, 72 kDa type IV collagenase. The experiment in a line: Inhibition of human recombinant MMP2 measured every 5 mins for 3 hrs.
A short description of data set [15]: Half life in Sprague-Dawley rat at 33 mg/kg, iv. Type of data set: ADME, organism-based. Also noted: dose 33 mg/kg, route intravenous. The note with it: in vivo.
In data set [16] the test system is HT-1080. As to the kind of experiment: Cytotoxicity against human HT1080 cells assessed as increase in LDH level at 10 uM after 24 hrs in hypoxic condition by spectrophotometric analysis relative to control. The format is functional.

T1 sequence (P08253 whole entry): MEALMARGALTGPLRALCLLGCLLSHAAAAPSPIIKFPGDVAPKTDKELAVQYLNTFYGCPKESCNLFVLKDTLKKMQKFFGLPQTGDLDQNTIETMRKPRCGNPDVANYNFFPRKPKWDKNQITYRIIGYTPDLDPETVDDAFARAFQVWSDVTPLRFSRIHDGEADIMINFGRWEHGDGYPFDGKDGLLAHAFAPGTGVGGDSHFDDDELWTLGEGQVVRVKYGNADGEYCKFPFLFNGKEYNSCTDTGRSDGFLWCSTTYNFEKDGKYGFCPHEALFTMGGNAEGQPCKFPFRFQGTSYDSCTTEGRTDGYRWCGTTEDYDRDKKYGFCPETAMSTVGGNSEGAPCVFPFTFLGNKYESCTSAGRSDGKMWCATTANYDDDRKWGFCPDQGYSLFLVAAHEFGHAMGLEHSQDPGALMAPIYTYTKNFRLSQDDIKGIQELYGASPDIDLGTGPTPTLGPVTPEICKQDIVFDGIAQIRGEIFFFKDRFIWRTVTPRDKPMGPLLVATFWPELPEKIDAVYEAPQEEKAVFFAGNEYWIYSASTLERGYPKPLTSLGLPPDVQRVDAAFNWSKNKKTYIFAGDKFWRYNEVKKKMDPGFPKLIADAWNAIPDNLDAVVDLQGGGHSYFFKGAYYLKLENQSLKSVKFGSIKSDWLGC
Sequence of Carbonic anhydrase 1 (P00915 whole entry): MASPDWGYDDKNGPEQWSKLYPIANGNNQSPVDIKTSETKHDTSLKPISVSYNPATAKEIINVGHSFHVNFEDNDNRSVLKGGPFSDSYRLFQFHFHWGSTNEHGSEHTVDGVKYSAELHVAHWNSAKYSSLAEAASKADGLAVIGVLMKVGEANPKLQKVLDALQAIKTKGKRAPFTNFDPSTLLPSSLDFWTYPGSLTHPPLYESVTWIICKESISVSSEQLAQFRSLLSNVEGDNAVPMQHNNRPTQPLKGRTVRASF
Sequence of Carbonic anhydrase 12 (O43570 whole entry): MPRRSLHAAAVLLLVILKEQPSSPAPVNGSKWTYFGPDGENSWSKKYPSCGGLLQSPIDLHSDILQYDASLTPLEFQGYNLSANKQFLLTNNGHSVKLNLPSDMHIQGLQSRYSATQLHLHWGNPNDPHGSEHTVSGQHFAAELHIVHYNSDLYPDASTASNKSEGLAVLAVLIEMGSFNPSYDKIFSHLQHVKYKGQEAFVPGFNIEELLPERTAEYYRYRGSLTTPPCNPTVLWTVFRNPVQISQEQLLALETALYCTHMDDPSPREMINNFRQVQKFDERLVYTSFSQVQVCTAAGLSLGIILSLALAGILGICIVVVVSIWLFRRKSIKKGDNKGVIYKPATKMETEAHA

Regarding `N[C@H]1CCCC[C@@H]1NC(=O)P(=O)(O)O`, the concentration for half-maximal inhibition (IC50) at Carbonic anhydrase 9 worked out at 7.14 µM; against Carbonic anhydrase 1, 8.24 µM; against Carbonic anhydrase 12, 8.26 µM; against Carbonic anhydrase 2, 8.28 µM.
For `O=C(NCCCNS(=O)(=O)c1ccc(Oc2ccccc2)cc1)P(=O)(O)O`, in that order: 6.8 µM, 0.71 µM, 6.4 µM and 0.58 µM.
In the case of `CCC(CC)NC(=O)P(=O)(O)O`, the concentration for half-maximal inhibition (IC50) turned out to be 8.26 µM against Carbonic anhydrase 9, 6.71 µM on Carbonic anhydrase 1, 4.65 µM against Carbonic anhydrase 12 and 8.79 µM against Carbonic anhydrase 2.
Turning to `O=C(NCCNC(=O)P(=O)(O)O)c1ccc(Oc2ccccc2)cc1`, the half-inhibitory concentration (IC50) on Carbonic anhydrase 9 worked out at 9.9 µM; against Carbonic anhydrase 1 it was 0.62 µM; on Carbonic anhydrase 12, 8.6 µM; in [1], 20 µM; against Carbonic anhydrase 2, 0.61 µM.
In the case of `C[C@H](NC(=O)P(=O)(O)O)C1CCCCC1`, the IC50 came to 6.36 µM at Carbonic anhydrase 9, 5.31 µM on Carbonic anhydrase 1, 6.64 µM against Carbonic anhydrase 12 and 9.45 µM on Carbonic anhydrase 2.
Regarding `O=C(NCCCCCNS(=O)(=O)c1ccc(Oc2ccccc2)cc1)P(=O)(O)O`, the Activity in the data set on B16-F10 [2] was 76%; with HeLa [4], “Non-toxic”; in the data set on HT-1080 [5], “Non-toxic”; in the data set with B16-F10 [6], 57%; in the data set with HeLa [7] it was “Dose-dependent effect”; in the data set with B16-F10 [8], 80%. Moreover, the Activity result with HT-1080 [10] is “Dose-dependent effect”; with B16-F10 [11], 90%. The “fold change (FC)” value in the data set with HeLa [3] is given as 1.3; in the data set on HT-1080 [9], 1; in the data set on HT-1080 [12] it was 2.3; in the data set on HT-1080 [16] it was 1.5. Also, the Drug absorption with Hydroxyapatite was determined as 44%. Besides, the IC50 against Carbonic anhydrase 9 was determined as 6.3 µM; against Carbonic anhydrase 1 it was 0.52 µM; on Carbonic anhydrase 12, 5.7 µM; at Carbonic anhydrase 2, 0.31 µM; in data set [14] it was 4 µM. Further, the Vd in [13] was 1.65 L/kg. In addition, in data set [15], the half-life is 9 h.
Consider `CCOP(=O)(OCC)C(=O)NCCCCNC(=O)P(=O)(OCC)OCC`, for which the half-maximal inhibitory concentration (IC50) came to 9.65 µM on Carbonic anhydrase 9, 9.7 µM against Carbonic anhydrase 1, 2.72 µM on Carbonic anhydrase 12 and 9.59 µM at Carbonic anhydrase 2.
In the case of `O=C(NC1CCCCC1)P(=O)(O)O` [(CYCLOHEXYLAMINO)CARBONYLPHOSPHONIC ACID], the IC50 at Carbonic anhydrase 9 was 8.89 µM; against Carbonic anhydrase 1, 7.89 µM; on Carbonic anhydrase 12, 5.59 µM; against Carbonic anhydrase 2 it was 8.81 µM.
For `O=C(NCCc1ccccc1)P(=O)(O)O` [PHENETHYLCARBAMOYLPHOSPHONIC ACID], in that order: 6.08 µM, 7.68 µM, 5.44 µM and 8 µM.
The matching figures for `O=C(NCCCCNC(=O)P(=O)(O)O)P(=O)(O)O`: 9.1 µM, 9.74 µM, 6.02 µM and 8.82 µM.
The matching figures for `O=C(NC1CCCCCCC1)P(=O)(O)O` [(CYCLOOCTYLAMINO)CARBONYLPHOSPHONIC ACID]: 9.14 µM, 8.02 µM, 7.99 µM and 7.89 µM.
Take `CC(C)NC(=O)P(=O)(O)O` [(ISOPROPYLAMINO)CARBONYLPHOSPHONIC ACID]: the half-inhibitory concentration (IC50) against Carbonic anhydrase 9 was 8.3 µM; against Carbonic anhydrase 1, 8.81 µM; at Carbonic anhydrase 12 it was 7.27 µM; at Carbonic anhydrase 2 it was 13.9 µM.
For `O=C(NCCN1CCCCC1)P(=O)(O)O`, in that order: 9 µM, 7.82 µM, 7.64 µM and 8.6 µM.
The matching figures for `N[C@@H]1CCCC[C@@H]1NC(=O)P(=O)(O)O`: 8.6 µM, 1.6 µM, 6 µM and 1.32 µM.
Turning to `O=C(NC1CCCC1)P(=O)(O)O` [(CYCLOPENTYLAMINO)CARBONYLPHOSPHONIC ACID], the half-maximal inhibitory concentration (IC50) is 8.97 µM at Carbonic anhydrase 9, 8.79 µM against Carbonic anhydrase 1, 7.26 µM at Carbonic anhydrase 12 and 7.41 µM on Carbonic anhydrase 2. For the same compound, the Activity is recorded as 80% in the data set with B16-F10 [8] and 86% in the data set on B16-F10 [11].
With `O=C(NCC1CCCCC1)P(=O)(O)O` [CYCLOHEXYLMETHYLCARBAMOYLPHOSPHONIC ACID], the IC50 on Carbonic anhydrase 9 came out at 8.59 µM; against Carbonic anhydrase 1, 7.36 µM; at Carbonic anhydrase 12 it was 7.44 µM; against Carbonic anhydrase 2, 9.23 µM.
For `C[C@@H](NC(=O)P(=O)(O)O)C1CCCCC1`, in that order: 8.12 µM, 6.78 µM, 6.97 µM and 8.85 µM.
For `O=C(NCCCCNS(=O)(=O)c1ccc(Oc2ccccc2)cc1)P(=O)(O)O`, in that order: 6.1 µM, 0.75 µM, 5.6 µM and 0.1 µM.
For `O=C(NCCN1CCCC1)P(=O)(O)O`, in that order: 8.8 µM, 9.43 µM, 5.43 µM and 9.66 µM.
In the case of `O=C(NCCNS(=O)(=O)c1ccc(Oc2ccccc2)cc1)P(=O)(O)O`, the IC50 on Carbonic anhydrase 9 stood at 7 µM; at Carbonic anhydrase 1, 0.98 µM; at Carbonic anhydrase 12, 6.9 µM; at Carbonic anhydrase 2, 0.82 µM.
As to `O=C(NCCCCCCNS(=O)(=O)c1ccc(Oc2ccccc2)cc1)P(=O)(O)O`, the Activity was 90% in the data set with B16-F10 [2]; “Non-toxic” in the data set with HeLa [4]; “Non-toxic” in the data set with HT-1080 [5]; 82% in the data set on B16-F10 [6]; “Dose-dependent effect” with HeLa [7]; 50% in the data set with B16-F10 [8]. Moreover, in the data set with HT-1080 [10], the Activity entry is “Dose-dependent effect”. For the same compound, the IC50 against Carbonic anhydrase 9 worked out at 7 µM; against Carbonic anhydrase 1 it was 0.38 µM; against Carbonic anhydrase 12 it was 6.2 µM; at Carbonic anhydrase 2 it was 0.1 µM; in data set [14], 4 µM. Moreover, the results for the “fold change (FC)” value in the data set on HT-1080 [9], with HT-1080 [12] and in the data set on HT-1080 [16] were 1, 1.9 and 1.3, respectively.

One may read the IC50 as the concentration that inhibits the measured activity by half. In general, half-life refers to how long it takes for the measured level to halve.

The values are drawn from ChEMBL document CHEMBL2169810, “Carbamoylphosphonates control tumor cell proliferation and dissemination by simultaneously inhibiting carbonic anhydrase IX and matrix metalloproteinase-2. Toward nontoxic chemotherapy targeting tumor microenvironment” (J Med Chem, 2012).
